Test results: PubChem BioAssay (NCI)
Where “and” joins values, the source holds several entries; their conditions need not be identical. Equal values may be shown once.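 Five compound concentrations were applied to cells in 96-well plates for 48 hours; endpoints were derived by simple linear interpolation of the resulting dose-response curve. GI50: concentration for 50% inhibition of growth. Definition used: TGI = concentration required for complete inhibition of growth.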

Assays:
Test in all cases: NCI anticancer screen, dose series, 48 h
[1] = tested on: SN12C renal
[2] = tested on: U251 CNS
[3] = tested on: DMS 273 small cell lung
[4] = tested on: OVCAR-8 ovarian
[5] = tested on: SK-MEL-2 melanoma
[6] = tested on: KM20L2 colon
[7] = tested on: HOP-92 NSCLC
[8] = tested on: MALME-3M melanoma
[9] = tested on: UO-31 renal
[10] = tested on: NCI/ADR-RES ovarian

Structure (SMILES)	TGI [1]	TGI [2]	TGI [3] [µM]	TGI [4]	TGI [5]	TGI [6]	TGI [7]	TGI [8]	TGI [9]	GI50 [1]	GI50 [5]	GI50 [6] [µM]	GI50 [7]	GI50 [8]	GI50 [9]	GI50 [2]	GI50 [3] [µM]	GI50 [4]	GI50 [10]	TGI [10]
O=C(c1ccccc1)c1nnc(C(=O)c2ccccc2)nn1	> 344 µM	> 344 µM	> 344	> 344 µM	> 344 µM	> 344 µM	> 344 µM	> 344 µM	> 344 µM											
C/C(CC(=O)Nc1cc(Cl)c(Cl)cc1Cl)=N\NC(N)=O		> 100 µM	> 100	> 100 µM	> 100 µM	> 100 µM	> 100 µM	> 100 µM	> 100 µM											
N#Cc1cc([N+](=O)[O-])ccc1NC(=O)C(=O)Nc1n[nH]c(N)n1	> 100 µM	> 100 µM	> 100	> 100 µM	> 100 µM	> 100 µM	> 100 µM	> 100 µM	> 100 µM											
CC(C)(C)C1C=C(Sc2ccccc2)C(=O)O1 (stereo unspecified)	> 100 µM	> 100 µM	> 100	> 100 µM	> 100 µM	> 100 µM	75.2 µM	> 100 µM	92.1 µM											
O=C(/N=N/C(=O)OCc1ccccc1)OCc1ccccc1	> 100 µM	> 100 µM	> 100	> 100 µM	> 100 µM	> 100 µM	56.8 µM	> 100 µM	> 100 µM											
O=C1CCC(=O)N2CCCCN12	> 100 µM	> 100 µM	> 100	> 100 µM	> 100 µM	> 100 µM	> 100 µM	> 100 µM	> 100 µM											
Cc1cc2c(cc1C)[n+](=O)c(C(=O)C/C(=N/NC(=O)CC#N)C(=O)Nc1ccccc1C(F)(F)F)c(C)n2[O-]	> 100 µM	> 100 µM	> 100	> 100 µM	92.3 µM	> 100 µM		> 100 µM												
CCc1ccc(/C=C\c2cc(OC)c(OC)c(OC)c2)cc1			0.994	0.581 µM	0.66 µM and 0.203 µM	0.125 µM and 0.032 µM	0.233 µM	37.4 µM	81.3 µM	0.0539 µM	0.0258 µM	0.0164	0.0222 µM	0.0447 µM	0.0512 µM					
O=C1O[C@@H](c2ccc3c(c2)OCO3)C2C(=O)O[C@@H](c3ccc4c(c3)OCO4)C12 (stereo partly specified)	> 100 µM	> 100 µM	> 100	> 100 µM	> 100 µM	> 100 µM	> 100 µM		> 100 µM											
C/C(CC(=O)Nc1ccc(C)cc1C)=N/N=C(N)N		> 100 µM	> 100	> 100 µM	> 100 µM	> 100 µM	> 100 µM	> 100 µM	> 100 µM											
O=C1C2c3[nH]c4ccccc4c3C3CCCCCCC3C2C(=O)N1c1ccccc1 (stereo unspecified)	22.2 µM	14.9 µM	29.8	14.7 µM				12.7 µM												
CCC[CH2][Sn]1([CH2]CCC)[O]Cc2nc(C)ccc2[O]1	23.3 µM	16.7 µM	22.9	21.7 µM	8.8 µM	23.6 µM	19.2 µM	14.5 µM	26.1 µM	11.3 µM	3.32 µM	10.9	2.52 µM	5.03 µM	13.3 µM	4.73 µM	11	9.1 µM		
COc1ccc(C2=CC3CCC2C3)cc1 (stereo unspecified)	> 100 µM	> 100 µM	> 100	> 100 µM	> 100 µM		> 100 µM	> 100 µM	> 100 µM											
CC1=NN(C(=O)Nc2ccccc2)C(=O)C2CCC(=O)N12 (stereo unspecified)	> 100 µM	> 100 µM	> 100	> 100 µM	> 100 µM	> 100 µM	> 100 µM		> 100 µM											
[Cl-].[Dy+3].[O-]/N=C(\c1ccccc1)c1ccccn1.[O-]/N=C(\c1ccccc1)c1ccccn1.[O-]/N=C(\c1ccccc1)c1ccccn1	> 100 µM	> 100 µM	> 100	> 100 µM	64.8 µM	> 100 µM	> 100 µM	> 100 µM	65.3 µM	46.4 µM	27.3 µM	42	41.4 µM	34.4 µM	25.3 µM	47.5 µM	29.8	35.8 µM		
CC(=O)OC[C@]1(C)C=C2C(=O)[C@](C)(O)C3(CC3)C(C)=C2[C@H]1O	6.21 µM	6.16 µM		4.51 µM	0.345 µM		0.623 µM	0.302 µM	0.273 µM	0.251 µM	0.127 µM		0.148 µM	0.124 µM	0.114 µM	0.068 µM		0.177 µM	0.0772 µM	0.804 µM
Cn1c(=O)c2[nH]c(SCc3ccccn3)nc2n(C)c1=S	> 100 µM	> 100 µM		> 100 µM	> 100 µM		> 100 µM	> 100 µM	> 100 µM											> 100 µM
CC(C)C(=O)NC(=S)Nc1ccc([N+](=O)[O-])cc1C#N	> 100 µM	> 100 µM	> 100	> 100 µM	> 100 µM	> 100 µM	> 100 µM	> 100 µM	> 100 µM											
O=C1CCC2(c3ccc(F)cc3)Nc3cc(Cl)ccc3N12 (stereo unspecified)	> 100 µM	> 100 µM	> 100	> 100 µM	> 100 µM	> 100 µM		> 100 µM	> 100 µM											
COc1cc2c(c(O)c1Br)C(=O)c1c(O)cc(C[C@H](C)O)cc1[C@H]2[C@H]1c2cc(C[C@H](C)O)cc(O)c2C(=O)c2c1cc(OC)c(Br)c2O	67.5 µM and > 100 µM	23.1 µM and 39.2 µM		67.5 µM and > 100 µM	19.6 µM and 44 µM		32.3 µM and 39.6 µM	17 µM and 26.1 µM	15.9 µM and 29.8 µM	2.25 µM and 3.64 µM	6.37 µM and 18.1 µM		5.31 µM and 9.42 µM	6.65 µM and 12.8 µM	7.52 µM and 15.4 µM	2.97 µM and 5.25 µM		3.23 µM and 7.56 µM	17.5 µM and 28.5 µM	59.9 µM and > 100 µM
O/N=C/C1c2ccccc2-c2ccccc21	31.9 µM	44 µM		41.5 µM	36.1 µM		28 µM	31.9 µM	32.4 µM											33.8 µM
